# Measured values: publication PMC11944515, “Host-Mediated Antimicrobial Effects and NLRP3 Inflammasome Modulation by Caulerpin and Its Derivatives in Macrophage Models of Mycobacterial Infections” (Microorganisms, 2025)
# Like-named read-outs stand apart in the source and are kept apart here.
# What was measured:
# [1] = system: M. smegmatis within RAW 264.7 macrophages; assay: Therapeutic potential in M. smegmatis-infected RAW 264.7 cells (CFU); format: cell-based, Mycobacterium smegmatis; conditions: 24 h of treatment after infection; for reduction of bacterial burden, M. smegmatis within RAW 264.7: 15 μM, vs untreated controls
# Description: For the first in vitro infection test with M. smegmatis, RAW 264.7 were seeded in 96-well culture plates at a density of 1 × 10^4 cells/well in DMEM medium (with 10% FBS, without antibiotics) and incubated overnight at 37 °C with 5% CO2 [20]. Infection of RAW 264.7 cells with M. smegmatis mc^2155 was performed at a multiplicity of infection of 1:1 for 2 h at 37 °C with 5% CO2. The medium with non-internalized bacteria was removed, and infected cells were then treated with the tested substances in DMEM: CP (15 µM, 7.5 µM and 3.25 µM), CA (30 µM, 15 µM, 7.5 µM and 3.25 µM), DE (15 µM, 7.5 µM and 3.25 µM), and DP (15 µM, 7.5 µM and 3.25 µM). Macrophages were lysed after 24 h with 0.1% Triton–X100, and these suspensions were diluted and plated on LB. CFU was determined after incubation of plates for 3 days at 37 °C. CFU numbers were expressed as log (CFU/well).
# [2] = system: TNF-α; assay: TNF-α production in M. smegmatis-infected RAW 264.7 cells (ELISA); format: cell-based, murine; conditions: 15 μM, 24 h, M. smegmatis MOI 1:1, vs infected control
# Description: (§1) IL-1β, IL-10, and TNF-α levels in the culture supernatant were determined by sandwich enzyme-linked immunosorbent assay as per the manufacturer’s instructions. Optical density was read at 450 nm using a microplate spectrophotometer (microplate reader EL800, BioTek, Winooski, VT, USA).
# [3] = system: IL-1β; assay: IL-1β production in M. smegmatis-infected RAW 264.7 cells (ELISA); format: cell-based, murine; conditions: 15 μM, 24 h, M. smegmatis MOI 1:1, vs infected control
# Description: as §1
# [4] = system: NLRP3 inflammasome; assay: NLRP3 evaluation by flow cytometry in M. smegmatis-infected RAW 264.7 cells; format: cell-based, murine; conditions: 15 μM, 24 h
# Description: Cells were placed in a 96-well plate (U bottom) 24 h after treatment in culture. Then, cells were fixed by Cytofix (BD Cytofix™, Franklin Lakes, NJ, USA) and permeabilized by Perm Buffer (BD Phosflow™, San Diego, CA, USA) for 30 min each. Cells were subsequently labeled with an unconjugated anti-NLRP3 antibody, according to the manufacturer’s instructions (BD Biosciences, San Diego, CA, USA). Finally, anti-rat IgG2a (PE) was added for NLRP3 analysis and cells were suspended in PBS and evaluated in a BD Accuri C6 Plus flow cytometer.
# First, macrophages were visualized using size (FSC) and granularity (SSC) parameters, and a gate was performed in the cell population. The macrophages were then analyzed by measuring the median fluorescence intensity (MFI) corresponding to antibody labeling. MFI data were normalized to the control group, which was set to 100%.
# [5] = system: M. tuberculosis H37Ra; assay: M. tuberculosis susceptibility by CFU enumeration; format: cell-based, Mycobacterium tuberculosis; conditions: H37Ra, 48 h, CFU
# Description: Next, CP, CA, and DE were diluted in Middlebrook 7H9 plus 10% OADC for the cellular susceptibility assay with M. tuberculosis H37Ra to yield concentrations up to 15 µM, 30 µM, and 15 µM, respectively. RIF at 0.03 µM was used as a positive control. The final DMSO concentration in all wells was 2.5%. The M. tuberculosis suspension was diluted in 7H9 plus 10% OADC to achieve an optical density of 0.006 at 595 nm, and 100 μL was then added to each well. Plates were covered, sealed with parafilm, and incubated at 37 °C for 48 h. After incubation, aliquots were removed, diluted, and plated in Middlebrook 7H10 agar plus 10% OADC. Plates were incubated at 37 °C for 4 weeks, and CFU were counted. CFU numbers were expressed as log10(CFU/mL).
# [6] = system: Artemia salina; assay: Artemia salina toxicity test; conditions: 24 h; for effect on A. salina nauplii survival: 30 to 120 µM; for IC50: Artemia salina, estimated
# Description: Artemia salina (brine shrimp) survival was determined after incubation with CP and its analogues following the method described by Magalhães et al.. A. salina cysts were purchased from a local aquarium store and hatched (0.5 g cysts/L) in modified artificial seawater (35 g/L sea salt) supplemented with dried yeast (6 mg/L). Aeration was provided using an aquarium air pump connected to a line extending to the bottom of the hatching vessel. After 2 days incubation (in a 23–25 °C room), nauplii were collected using a Pasteur pipette after attracting the organisms to one side of the vessel with a light source. Test compounds were serially diluted 2-fold (ranging from 30 to 120 µM) in 96-well microplates containing 100 µL of 0.9% NaCl solution with dried yeast (6 mg/L). All experiments were performed in quadruplicate with a final DMSO concentration of 2.5%. Vehicle control wells (with 2.5% DMSO) were included in the experiment. A suspension containing 8–12 nauplii in 100 µL was added to each well, and the plates were incubated at 23–25 °C for 24 h. The number of live and dead (non-motile) nauplii in each well was then counted under a microscope. Nauplii were considered dead if they remained immobile for 10 s under light exposure. The survival percentage for each test group was calculated relative to the control group (2.5% DMSO), which was set as 100%.
# [7] = system: HepG2 cells; set-up: method as in PMID 32579063; conditions: 15.80 to 500 µg/mL over 24 h; cited from earlier work
# [8] = system: IFN-γ, IL-6, and TNF-α levels; set-up: method as in PMID 30205459; conditions: doses of 40 mg/kg, murine model of peritonitis and ulcerative colitis; cited from earlier work
# [9] = system: IL-8, IL-6, and TNF-α cytokines; set-up: method as in PMID 34884957; conditions: pretreatment, compared with untreated control; cited from earlier work
# [10] = system: Vero E6 cells; conditions: cited from earlier work
smiles,measurement,setting,value
"CCOC(=O)/C1=C/c2c([nH]c3ccccc23)/C(C(=O)OCC)=C\c2c1[nH]c1ccccc21 [DE, (6E,13E)-diethyl 5,12-dihydrocycloocta[1,2-b:5,6-b′]diindole-6,13-dicarboxylate]","reduction of bacterial burden, M. smegmatis within RAW 264.7",[1],0.430 log10 CFU
same,reduction in TNF-α production,[2],56.94%
same,reduction in IL-1β production,[3],59.82%
same,reduction of NLRP3 expression (MFI),[4],39.81%
same,inhibitory concentration against M. tuberculosis,[5],greater than 15 μM
same,effect on A. salina nauplii survival,[6],did not affect nauplii survival rates
same,IC50,[6],> 120 µM
"O=C(O)C1=Cc2c([nH]c3ccccc23)C(C(=O)O)=Cc2c1[nH]c1ccccc21 [CA, caulerpinic acid]","reduction of bacterial counts, M. smegmatis within RAW 264.7",[1]; 30 μM,0.243 log10
same,inhibitory concentration against M. tuberculosis,[5],greater than 30 μM
same,effect on A. salina nauplii survival,[6],did not affect nauplii survival rates
same,IC50,[6],> 120 µM
"COC(=O)/C1=C/c2c([nH]c3ccccc23)/C(C(=O)OC)=C\c2c1[nH]c1ccccc21 [CP, Caulerpin]","reduction of bacterial burden, M. smegmatis within RAW 264.7",[1],0.230 log10 CFU
same,reduction in TNF-α production,[2],34.07%
same,reduction in IL-1β production,[3],69.35%
same,reduction of NLRP3 expression (MFI),[4],29.12%
same,inhibitory concentration against M. tuberculosis,[5],greater than 15 μM
same,effect on A. salina nauplii survival,[6],did not affect nauplii survival rates
same,IC50,[6],> 120 µM
same,anticancer activity in HepG2 cells,[7],exhibited anticancer activity in HepG2 cells
same,"effect on IFN-γ, IL-6, and TNF-α levels",[8],"reduced IFN-γ, IL-6, and TNF-α levels"
same,"effect on IL-8, IL-6, and TNF-α expression",[9],"reduced expression of IL-8, IL-6, and TNF-α cytokines"
same,effect on Vero E6 viability,[10]; 589.3 µg/mL,maintained their viability
same,effect on Vero E6 viability,[10]; 50 to 1000 µM for 72 h,no effect on Vero E6 viability
